Values after ≈ are worked out from the molar mass of the structure shown.
Tests used:
[1] = biological target: T1, Vasopressin V1b receptor (Homo sapiens) (UniProt P47901); test: Binding affinity to human vasopressin V1b receptor at 10 uM relative to control
T1 sequence (whole entry): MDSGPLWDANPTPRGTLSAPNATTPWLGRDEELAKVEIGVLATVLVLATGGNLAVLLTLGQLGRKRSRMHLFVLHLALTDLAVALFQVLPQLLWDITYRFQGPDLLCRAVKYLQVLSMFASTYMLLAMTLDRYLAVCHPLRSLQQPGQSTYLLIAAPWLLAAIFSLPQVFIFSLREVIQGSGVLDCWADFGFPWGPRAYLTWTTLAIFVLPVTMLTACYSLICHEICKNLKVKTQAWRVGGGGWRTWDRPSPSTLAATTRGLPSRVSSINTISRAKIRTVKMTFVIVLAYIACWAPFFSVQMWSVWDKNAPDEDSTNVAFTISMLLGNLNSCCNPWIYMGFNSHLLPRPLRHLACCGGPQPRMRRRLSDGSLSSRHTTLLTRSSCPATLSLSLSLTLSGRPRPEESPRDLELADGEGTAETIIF

Oxytocin receptor = biological target: T2, Oxytocin receptor (Homo sapiens, UniProt P30559); test: Antagonist activity at human oxytocin receptor by cell based beta-lactamase reporter gene assay; type: functional
T2 sequence (P30559 whole entry): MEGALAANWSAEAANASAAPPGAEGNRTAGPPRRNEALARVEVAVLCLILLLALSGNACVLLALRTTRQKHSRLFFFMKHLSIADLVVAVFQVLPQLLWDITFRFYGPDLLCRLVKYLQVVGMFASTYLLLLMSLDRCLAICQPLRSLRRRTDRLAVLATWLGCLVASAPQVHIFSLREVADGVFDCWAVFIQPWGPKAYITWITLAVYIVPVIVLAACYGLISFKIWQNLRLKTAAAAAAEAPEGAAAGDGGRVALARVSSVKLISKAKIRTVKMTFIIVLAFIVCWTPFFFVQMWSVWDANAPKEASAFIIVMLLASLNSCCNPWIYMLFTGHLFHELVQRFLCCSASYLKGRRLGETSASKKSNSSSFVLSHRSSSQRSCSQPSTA

Vasopressin V2 receptor = Vasopressin V2 receptor (Homo sapiens, UniProt P30518); test: Antagonist activity at human vasopressin V2 receptor by cell based beta-lactamase reporter gene assay; type: functional
Vasopressin V2 receptor, sequence (P30518 whole entry): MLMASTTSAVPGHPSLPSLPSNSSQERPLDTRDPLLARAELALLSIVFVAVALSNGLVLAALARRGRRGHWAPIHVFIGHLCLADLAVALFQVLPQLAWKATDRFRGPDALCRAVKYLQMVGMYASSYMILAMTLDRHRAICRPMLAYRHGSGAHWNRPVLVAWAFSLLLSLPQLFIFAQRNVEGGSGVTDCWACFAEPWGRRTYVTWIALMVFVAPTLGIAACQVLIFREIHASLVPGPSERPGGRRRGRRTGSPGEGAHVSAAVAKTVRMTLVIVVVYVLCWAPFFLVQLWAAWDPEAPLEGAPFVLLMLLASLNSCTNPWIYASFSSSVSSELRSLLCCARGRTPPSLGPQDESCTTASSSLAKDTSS

Vasopressin V1a receptor = Vasopressin V1a receptor (Homo sapiens, UniProt P37288); test: Antagonist activity at human vasopressin V1a receptor by cell based beta-lactamase reporter gene assay; type: functional
Vasopressin V1a receptor, sequence (P37288 whole entry): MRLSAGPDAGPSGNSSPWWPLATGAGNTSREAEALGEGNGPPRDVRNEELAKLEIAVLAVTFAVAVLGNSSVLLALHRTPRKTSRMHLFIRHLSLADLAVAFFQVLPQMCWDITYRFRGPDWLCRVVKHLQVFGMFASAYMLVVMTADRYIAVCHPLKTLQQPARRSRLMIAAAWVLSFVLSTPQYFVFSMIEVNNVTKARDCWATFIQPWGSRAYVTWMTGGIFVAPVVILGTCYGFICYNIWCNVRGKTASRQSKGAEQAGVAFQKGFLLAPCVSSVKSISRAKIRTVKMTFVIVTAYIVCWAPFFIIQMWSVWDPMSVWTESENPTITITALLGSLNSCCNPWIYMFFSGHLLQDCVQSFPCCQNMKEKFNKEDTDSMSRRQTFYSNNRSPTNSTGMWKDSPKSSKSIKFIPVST

[2] = Aqueous solubility at pH 7.4; type: physicochemical
Vasopressin V1b receptor = biological target: T3, Vasopressin V1b receptor (Homo sapiens, UniProt P47901); test: Antagonist activity at human vasopressin V1b receptor by cell based beta-lactamase reporter gene assay; type: functional
T3 sequence (P47901 whole entry): T1 sequence (whole entry)

[3] = Intrinsic clearance in human liver microsomes; type: ADME, Microsome

SMILES | Activity [1] | Ki (Oxytocin receptor) | Ki (Vasopressin V2 receptor) | Ki (Vasopressin V1a receptor) | solubility [2] | Ki (Vasopressin V1b receptor) | microsomal CLint [3]
COCc1nnc(-c2cnc(-c3ccc(C#N)cc3C)cn2)n1-c1ccc(OC)nc1 | < 20% |  |  |  |  |  | 
CCOc1ccc(-c2nnc(COCCOC)n2-c2ccc(OC)nc2)cc1C | < 20% | 19 nM | 6400 nM | 1700 nM |  |  | 
CCOc1ccc(-c2nnc(COC)n2-c2ccc(OC)nc2)cc1C | < 20% | 102 nM | > 10000 nM | 3800 nM | 170 µg/mL (≈ 480 µM) |  | 
CCOc1ccc(-c2nnc(Cn3nccn3)n2-c2ccc(OC)nc2)cc1C | < 20% | 45 nM | 1000 nM | 214 nM |  |  | 
CCOc1ccc(S(=O)(=O)N(CC(=O)N/N=C2\C(=O)Nc3ccccc32)c2ccccc2)cc1 | < 20% | 6 nM |  |  |  |  | 
COc1ccc(-n2c(C)nnc2-c2cnc(-c3ccc(F)cc3C)cn2)cn1 | < 20% |  |  |  |  |  | 
CCOc1ccc(-c2nnc(COC)n2-c2ccc(OC)nc2)cc1C(F)(F)F | < 20% | 190 nM | > 10000 nM | > 10000 nM |  |  | 
CCOc1ccc(-c2nnc(COC)n2-c2ccc(OC)nc2)cc1Cl | < 20% | 144 nM | > 10000 nM | 2900 nM |  |  | 
CCOCc1nnc(-c2ccc(OCC)c(C)c2)n1-c1ccc(OC)nc1 | < 20% | 28 nM | > 10000 nM | 594 nM | 344 µg/mL (≈ 934 µM) | > 10000 nM | 12 µL/min/mg
CCOc1ccc(-c2nnc(C)n2-c2ccc(OC)nc2)cc1C | < 20% | 143 nM | > 10000 nM | > 10000 nM |  |  | 
